The record followed here is patent US12247018B2, “Aryl-n-aryl derivatives for treating a RNA virus infection” (ABIVAX, priority 2018, dated 2025).

This experiment deals with RSV A2. In words: RSV inhibition (cytopathic effect) in HEp-2 cells using Viral ToxGlo assay. The class given is cell-based. As to conditions: human respiratory syncytial virus; RSV A2, HEp-2 cells, MOI 0.5, 72 h p.i. As to the method: Protocol for Screening Antiviral Compounds for RSV Inhibition and Cytotoxicity Using Viral ToxGlo Assay
HEp-2 cells were maintained in Eagle's minimum essential medium (EMEM) with Earle's BSS adjusted to contain 2 mM L-glutamine, 10% fetal bovine serum, 100 U/ml penicillin and 100 μg/ml streptomycin. For the purposes of the screening assay they were grown to 90% confluency, trypsinized and recovered. The trypsin was neutralised with cell culture media and cells were centrifuged at 150×g for 5 minutes before discarding the supernatant and resuspending cell pellet in assay media (EMEM with Earle's BSS adjusted to contain 2 mM L-glutamine, 2% fetal bovine serum and 100 U/ml penicillin and 100 μg/ml streptomycin). The cells were seeded into white clear-bottomed cell culture plates at a density of 1.5×10^4 cells/well in 50 μl and 4×10^3 cells/well in 25 μl for 96 well plates and 384 well plates respectively. For the media/background control column assay media only was added. Cell plates were placed in a humid chamber and incubated overnight at 37° C./5% CO2. After overnight incubation cells were checked for confluency and healthy appearance.
Test articles were made up at 10× test concentration in a maximum DMSO concentration of 10% (final assay concentration maximal 1% DMSO) and added to the cell plates in volumes of 10 μl for 96 well plates and 5 μl for 384 well plates. For cell control and virus control wells the test article solvent only was added. Virus or assay media for cytotoxicity test wells and media/cell control wells was added immediately after test articles at an MOI of 0.5, 40 or 20 μl for 96 and 384 well plates respectively. Virus suspension was prepared by thawing RSV A2 frozen stocks and diluting to the required concentration of plaque forming units in assay media on ice.
Cell plates were further incubated inside a humid chamber for 72 h p.i at 37° C./5% CO2. After the incubation period cells were observed under the microscope to check for characteristic cytopathic effect in virus control wells and healthy cells in the cell control wells. After plates were adjusted to room temperature 20/40 μl Viral ToxGlo (Promega) was added to each well of the 384/96 well cell plates. Plates were incubated at room temperature, protected from light on a plate rocker for 20 minutes before measuring the luminescence on a spectrophotometer (Biotek Synergy HTX).
A general note: Damage to the host cells serves as the signal in cytopathic effect assays.
With `O=C(N=C1NCCCN1)c1ccc(Nc2ccccc2S(=O)(=O)CCCC2CCCCC2)c(C2CC2)c1` [compound 106, 4-{[2-(3-cyclohexylpropanesulfonyl)phenyl]amino}-3-cyclopropyl-N-(1,3-diazinan-2-ylidene)benzamide], the EC50 is 67 nM.
As to `O=C(N=C1NCCCN1)c1ccc(Nc2cccc(OCC(F)F)c2)c(C2CC2)c1` [compound 125, 3-cyclopropyl-N-(1,3-diazinan-2-ylidene)-4-{[3-(2,2-difluoroethoxy)phenyl]amino}benzamide], the EC50 worked out at 151 nM.
For the molecule `CN(C)C(=O)c1cccc(Nc2ccc(C(=O)N=C3NCCCN3)cc2C2CC2)c1` [compound 163, 3-cyclopropyl-N-(1,3-diazinan-2-ylidene)-4-{[3-(dimethylcarbamoyl)phenyl]amino}benzamide], the EC50 is 1470 nM.
Take `O=C1CCN/C(=N\C(=O)c2ccc(Nc3cccc(OCC4COCCO4)c3)c(C3CC3)c2)N1` (centres unmarked) [compound 161, 3-cyclopropyl-4-({3-[(1,4-dioxan-2-yl)methoxy]phenyl}amino)-N-[(2E)-4-oxo-1,3-diazinan-2-ylidene]benzamide]: the 50% effective concentration (EC50) is 1310 nM.
Consider `O=C(N=C1NCCCN1)c1ccc(Nc2cccc(C(=O)NC3CCCCC3)c2)c(C2CC2)c1` [compound 117, 4-{[3-(cyclohexylcarbamoyl)phenyl]amino}-3-cyclopropyl-N-(1,3-diazinan-2-ylidene)benzamide], for which the half-maximal effective concentration (EC50) worked out at 125 nM.
For `CC1CN(C(=O)c2cccc(Nc3ccc(C(=O)/N=C4\NCCC(=O)N4)cc3C3CC3)c2Cl)CCO1` (centres unmarked) [compound 92, 4-{[2-chloro-3-(2-methylmorpholine-4-carbonyl)phenyl]amino}-3-cyclopropyl-N-[(2E)-4-oxo-1,3-diazinan-2-ylidene]benzamide], the concentration for a half-maximal effect (EC50) came out at 2 nM.
For `O=C(N=C1NCCCN1)c1ccc(Nc2cccc(C(=O)NCCC3CCOCC3)c2)c(C2CC2)c1` [compound 126, 3-cyclopropyl-N-(1,3-diazinan-2-ylidene)-4-[(3-{[2-(oxan-4-yl)ethyl]carbamoyl}phenyl)amino]benzamide], the EC50 stood at 165 nM.
Regarding `O=C(N=C1NCCCN1)c1ccc(Nc2cccc(OC(F)F)c2)c(C2CC2)c1` [compound 112, 3-cyclopropyl-N-(1,3-diazinan-2-ylidene)-4-{[3-(difluoromethoxy)phenyl]amino}benzamide], the EC50 was 97 nM.
With `CC(C)CCCCNC(=O)c1cccc(Nc2ccc(C(=O)N=C3NCCCN3)cc2C2CC2)c1` [compound 107, 3-cyclopropyl-N-(1,3-diazinan-2-ylidene)-4-({3-[(5-methylhexyl)carbamoyl]phenyl}amino)benzamide], the EC50 worked out at 68 nM.
In the case of `CC(C)CCNC(=O)c1cccc(Nc2ccc(C(=O)N=C3NCCCN3)cc2C(F)(F)F)c1` [compound 104, N-(1,3-diazinan-2-ylidene)-4-({3-[(3-methylbutyl)carbamoyl]phenyl}amino)-3-(trifluoromethyl)benzamide], the 50% effective concentration (EC50) came out at 50 nM.
Regarding `CC(C)NC(=O)c1cccc(Nc2ccc(C(=O)/N=C3\NCCC(=O)N3)cc2C2CC2)c1` [compound 120, 3-cyclopropyl-N-[(2E)-4-oxo-1,3-diazinan-2-ylidene]-4-({3-[(propan-2-yl)carbamoyl]phenyl}amino)benzamide], the EC50 worked out at 136 nM.
The figure for `O=C(N=C1NCCCN1)c1ccc(Nc2cccc(C(=O)NC3CCOC3)c2)c(C2CC2)c1` (centres unmarked) [compound 155, 3-cyclopropyl-N-(1,3-diazinan-2-ylidene)-4-({3-[(oxolan-3-yl)carbamoyl]phenyl}amino)benzamide] is 949 nM; for `CCC(CC)NC(=O)c1cccc(Nc2ccc(C(=O)N=C3NCCCN3)cc2C2CC2)c1` [compound 110, 3-cyclopropyl-N-(1,3-diazinan-2-ylidene)-4-({3-[(pentan-3-yl)carbamoyl]phenyl}amino)benzamide] it is 80 nM; for `O=C1CCN/C(=N\C(=O)c2ccc(Nc3cccc(OCCC4COCCO4)c3)c(C3CC3)c2)N1` (centres unmarked) [compound 150, 3-cyclopropyl-4-({3-[2-(1,4-dioxan-2-yl)ethoxy]phenyl}amino)-N-[(2E)-4-oxo-1,3-diazinan-2-ylidene]benzamide] it is 512 nM.
On to `O=C(N=C1NCCCN1)c1ccc(Nc2cccc(-c3nnn(CCCC4CCCCC4)n3)c2)c(C2CC2)c1` [compound 149, 4-({3-[2-(3-cyclohexylpropyl)-2H-1,2,3,4-tetrazol-5-yl]phenyl}amino)-3-cyclopropyl-N-(1,3-diazinan-2-ylidene)benzamide], for which the EC50 worked out at 494 nM.
With `Cc1c(NC(=O)CCC(C)C)cccc1Nc1ccc(C(=O)N=C2NCCCN2)cc1C1CC1` [compound 128, 3-cyclopropyl-N-(1,3-diazinan-2-ylidene)-4-{[2-methyl-3-(4-methylpentanamido)phenyl]amino}benzamide], the EC50 worked out at 209 nM.
Turning to `CC1CN1C(=O)c1cccc(Nc2ccc(C(=O)N=C3NCCCN3)cc2C2CC2)c1` (centres unmarked) [compound 162, 3-cyclopropyl-N-(1,3-diazinan-2-ylidene)-4-{[3-(2-methylaziridine-1-carbonyl)phenyl]amino}benzamide], the 50% effective concentration (EC50) is 1370 nM.
As for `O=C(N=C1NCCCN1)c1ccc(Nc2ccnc(C(=O)NCCC3CCCCC3)c2)c(C2CC2)c1` [compound 138, N-(2-cyclohexylethyl)-4-({2-cyclopropyl-4-[(1,3-diazinan-2-ylidene)carbamoyl]phenyl}amino)pyridine-2-carboxamide], the concentration giving a half-maximal response (EC50) came to 310 nM.
For the molecule `O=C(N=C1NCCCN1)c1ccc(Nc2cccc(OCCC3CCCCC3)c2)c(C2CC2)c1` [compound 130, 4-{[3-(2-cyclohexylethoxy)phenyl]amino}-3-cyclopropyl-N-(1,3-diazinan-2-ylidene)benzamide], the 50% effective concentration (EC50) was determined as 234 nM.
Take `CC1(NC(=O)c2cccc(Nc3ccc(C(=O)N=C4NCCCN4)cc3C3CC3)c2)CC1` [compound 99, 3-cyclopropyl-N-(1,3-diazinan-2-ylidene)-4-({3-[(1-methylcyclopropyl)carbamoyl]phenyl}amino)benzamide]: the EC50 came to 34 nM.

The term EC50 denotes the concentration at which the effect is half-maximal.
